Data taken from patent publication US10118935B2, “Melampomagnolide B dimers” (priority 2014, dated 2018).

How the values were obtained:
NCI/ADR-RES = assay: NCI 60 cell line five dose, Ovarian Cancer; conditions: NCI/ADR-RES
SK-OV-3 = assay: NCI 60 cell line five dose, Ovarian Cancer
A549/ATCC = assay: NCI 60 cell line five dose, Non-Small Cell Lung Cancer
OVCAR-5 = assay: NCI 60 cell line five dose, Ovarian Cancer
HOP-92 = assay: NCI 60 cell line five dose, Non-Small Cell Lung Cancer
CCRF-CEM = assay: NCI 60 cell line five dose, Leukemia
KM12 = assay: NCI 60 cell line five dose, Colon Cancer
[1] = test system: panel of 60 human cancer cell lines; assay: Five-dose growth inhibition, panel; type: cell-based
NCI-H460 = assay: NCI 60 cell line five dose, Non-Small Cell Lung Cancer
OVCAR-3 = assay: NCI 60 cell line five dose, Ovarian Cancer
M14 = assay: NCI 60 cell line five dose, Melanoma
MDA-MB-468 = assay: NCI 60 cell line five dose, Breast Cancer
UO-31 = assay: NCI 60 cell line five dose, Renal Cancer
M9ENL AML cell lines = conditions: 10 μM; M9ENL cell line; FIG. 4
786-0 = assay: NCI 60 cell line five dose, Renal Cancer
SR = assay: NCI 60 cell line five dose, Leukemia
U251 = assay: NCI 60 cell line five dose, CNS Cancer
HCT-15 = assay: NCI 60 cell line five dose, Colon Cancer
PC-3 = assay: NCI 60 cell line five dose, Prostate Cancer
MALME-3M = assay: NCI 60 cell line five dose, Melanoma; conditions: MALME-3M
ACHN = assay: NCI 60 cell line five dose, Renal Cancer
MCF7 = assay: NCI 60 cell line five dose, Breast Cancer
SF-295 = assay: NCI 60 cell line five dose, CNS Cancer

C=C1C(=O)O[C@H]2[C@H]1CC/C(COC(=O)CCC(=O)NCCCCCCCCCNC(=O)CCC(=O)OC/C1=C/CC[C@@]3(C)O[C@H]3[C@H]3OC(=O)C(=C)[C@@H]3CC1)=C\CC[C@@]1(C)O[C@@H]21 [JVM 2-92, bis(((1aR,7aS,10aS,10bS,E)-1a-Methyl-8-methylene-9-oxo-1a,2,3,6,7,7a,8,9,10a,10b-decahydrooxireno[2′,3′:9,10]cyclodeca[1,2-b]furan-5-yl)methyl)4,4′-(nonane-1,9-diylbis(azanediyl))bis (4-oxobutanoate)]
GI50 (NCI/ADR-RES): 26.7 µM
TGI (NCI/ADR-RES): >100 µM
GI50 (SK-OV-3): 5.8 µM
TGI (SK-OV-3): 19.2 µM
GI50 (A549/ATCC): 13.8 µM
TGI (A549/ATCC): 33.7 µM
GI50 (OVCAR-5): 1.7 µM
TGI (OVCAR-5): 3.47 µM
GI50 (HOP-92): 1.4 µM
TGI (HOP-92): 3.05 µM
GI50 (CCRF-CEM): 0.28 µM
TGI (CCRF-CEM): 1.00 µM
CC50 (NCI-H322M): 61.3 µM
GI50 (KM12): 4.6 µM
TGI (KM12): 17.1 µM
growth inhibition ([1]; NCI-H522, SW-620, LOX IMVI, MCF7, BT-549, MDA-MB-468): nano-molar range
growth inhibition ([1]; all hematological leukemia cell lines): nanomolar range
GI50 (NCI-H460): 2.18 µM
TGI (NCI-H460): 5.17 µM
GI50 (OVCAR-3): 1.29 µM
TGI (OVCAR-3): 2.61 µM
GI50 (M14): 1.65 µM
TGI (M14): 3.64 µM
GI50 (MDA-MB-468): 0.98 µM
TGI (MDA-MB-468): 2.64 µM
GI50 (UO-31): 3.9 µM
TGI (UO-31): 16.1 µM
result compared to parthenolide (M9ENL AML cell lines): promising result
GI50 (786-0): 1.49 µM
TGI (786-0): 3.00 µM
GI50 (SR): 0.33 µM
TGI (SR): 1.17 µM
GI50 (U251): 3.01 µM
TGI (U251): 9.25 µM
GI50 (HCT-15): 2.63 µM
TGI (HCT-15): 11.9 µM
GI50 (PC-3): 2.53 µM
TGI (PC-3): 7.31 µM
GI50 (MALME-3M): 1.94 µM
TGI (MALME-3M): 4.17 µM
GI50 (ACHN): 2.1 µM
TGI (ACHN): 5.16 µM
GI50 (MCF7): 0.42 µM
TGI (MCF7): 1.85 µM
GI50 (SF-295): 7.68 µM
TGI (SF-295): 21.9 µM

C=C1C(=O)O[C@H]2[C@H]1CC/C(COC(=O)CCC(=O)NCCCCCCCCNC(=O)CCC(=O)OC/C1=C/CC[C@@]3(C)O[C@H]3[C@H]3OC(=O)C(=C)[C@@H]3CC1)=C\CC[C@@]1(C)O[C@@H]21 [JVM 2-87, bis(((1aR,7aS,10aS,10bS,E)-1a-Methyl-8-methylene-9-oxo-1a,2,3,6,7,7a,8,9,10a,1b-decahydrooxireno[2′,3′:9,10]cyclodeca[1,2-b]furan-5-yl)methyl)4,4′-(octane-1,8-diylbis(azanediyl))bis(4-oxobutanoate)]
GI50 (NCI/ADR-RES): 33.5 µM
TGI (NCI/ADR-RES): >100 µM
GI50 (SK-OV-3): 6.45 µM
TGI (SK-OV-3): 19.7 µM
GI50 (A549/ATCC): 18.5 µM
TGI (A549/ATCC): 40.7 µM
GI50 (OVCAR-5): 1.82 µM
TGI (OVCAR-5): 3.64 µM
GI50 (HOP-92): 1.58 µM
TGI (HOP-92): 3.27 µM
GI50 (CCRF-CEM): 0.32 µM
TGI (CCRF-CEM): 1.48 µM
CC50 (NCI-H322M): 60.5 µM
GI50 (KM12): 9.46 µM
TGI (KM12): 22.9 µM
growth inhibition (GI50) ([1]; CCRF-CEM, HL-60 (TB), K-562, SR): nanomolar range
growth inhibition (GI50) ([1]; NCI-H522, RXF 393, MCF7): nanomolar range
growth inhibition (GI50) ([1]; other human tumor cell lines in the panel): low micromolar range
GI50 (NCI-H460): 5 µM
TGI (NCI-H460): 19.9 µM
GI50 (OVCAR-3): 1.5 µM
TGI (OVCAR-3): 2.82 µM
GI50 (M14): 1.79 µM
TGI (M14): 3.79 µM
GI50 (MDA-MB-468): 1.33 µM
TGI (MDA-MB-468): 3.84 µM
GI50 (UO-31): 10.9 µM
TGI (UO-31): 24.2 µM
GI50 (786-0): 1.62 µM
TGI (786-0): 3.29 µM
GI50 (SR): 0.41 µM
TGI (SR): 2.10 µM
GI50 (U251): 3.03 µM
TGI (U251): 10.6 µM
GI50 (HCT-15): 3.6 µM
TGI (HCT-15): 15.6 µM
GI50 (PC-3): 3.64 µM
TGI (PC-3): 13.7 µM
CC50 (PC-3; read-out: LC50): 40.7 µM
GI50 (MALME-3M): 2.04 µM
TGI (MALME-3M): 4.04 µM
GI50 (ACHN): 3.13 µM
TGI (ACHN): 10.9 µM
GI50 (MCF7): 0.77 µM
TGI (MCF7): 2.47 µM
GI50 (SF-295): 15.1 µM
TGI (SF-295): 29.3 µM
